Measured values published in US20230093975A1, “I[…] FOR TREATING CENTRAL NERVOUS SYSTEM DISORDERS” (priority 2021, published 2023).
Where two headings read alike, the source gives them in different places.

Legend:
[1] = Oral rivastigmine pharmacokinetics and estimated CSF uptake (Exelon label); type: in vivo; settings: plasma volume 2750 mL, CSF volume 150 mL
Protocol: Drug coating and formulation development. The absolute bioavailability of oral rivastigmine is approximately 40%, and the AUC1-12 h cerebral spinal fluid (CSF)/plasma ratio is about 40% (Novartis Exelon® Capsules and Oral Solution Prescribing Information). An estimated 0.87% of the rivastigmine oral dose is absorbed and distributed into the CSF. Thus, the daily CSF uptake of this drug is estimated to be between 26-105 μg. As a starting point for the formulation development, we will first target to formulate a matrix loaded with rivastigmine which will be released over 30 days in a near linear manner. Bilateral administration of the rivastigmine matrix would result in approximately 21-107 μg rivastigmine delivered to CSF/day, assuming a CSF bioavailability between 10-50%.
For oral administration, delivery, an absolute bioavailability of Rivastigmine is about 40% and a mean AUC (area under the curve) 1-12 hr CSF/Plasma is about 40% (Exelon Label). The daily doses delivered to CSF are 26 μg/day, 52 μg/day, 79 μg/day, and 105 μg/day for the oral doses, equating to 1.5 mg BID, 3 mg BID, 4.5 mg BID, and 6 mg BID, respectively. For this estimation, a plasma volume of 2750 mL and a CSF volume of 150 mL are used.

[2] = oral rivastigmine, cited from earlier work

CCN(C)C(=O)Oc1cccc([C@H](C)N(C)C)c1 [Rivastigmine]
share of oral dose absorbed and distributed into the CSF [1]: 0.87% | AUC1-12 h CSF/plasma ratio [2]: about 40% | AUC1-12 h CSF/plasma ratio ([2]; listed as rivastigmine): approximately 40%
